{"source": "patent US4863748A", "about": "“Dietary products and uses comprising methylsulfonylmethane” (priority 1986, dated 1989)", "key": {"[1]": {"test_system": "t-lymphocyte dependent and t-lymphocyte independent immune responses", "assay": "Humoral immune responses in mice (Example 37)", "assay_type": "in vivo, balb/c strain mice", "settings": "3% by wt. in water", "description": "Laboratory mice genetically predisposed to lymphoma development were selected for this test. Humoral immunity participation was measured as was the effect of methylsulfonylmethane on an animal's life span. One set of 12 mice were maintained as controls. The treated (T) group received identical treatment except for their water given ad lib, which contained 3% by wt. of methylsulfonylmethane in solution.\nBy month 4 of this test, all controls were dead, due to lymphoma development. […] These normal balb/c strain mice of group T were tested for t-lymphocyte dependent (t-d) and t-lymphocyte independent (t-i) immune responses. […] Based on these preliminary results, at high enough daily rates of ingestion, methylsulfonylmethane stimulates humoral immunity thereby providing protection to otherwise lethal spontaneous mouse lymphomas."}, "[2]": {"test_system": "gum inflammation and oral mucosa", "assay": "Oral hygiene (Example 11)", "assay_type": "in vivo, human"}, "leg cramps": {"test_system": "leg cramps", "assay": "Leg cramps in marathon runner (Example 27)", "assay_type": "in vivo, human", "settings": "15 mg/kg/day, at least 7 days", "description": "Before a marathon race, administer methylsulfonylmethane to the runner for at least 7 days at the rate of 15 mg/kg/day."}, "mammary tumors": {"test_system": "mammary tumors", "settings": "abdominal DMBA; in drinking water; tumors in control animals; cited from earlier work"}, "mood and depression": {"test_system": "mood and depression", "assay": "Mental normalcy (Example 16)", "assay_type": "in vivo, human", "description": "Students reported that while taking methylsulfonylmethane, their ability to concentrate is enhanced. Methylsulfonylmethane therefore is useful in conjunction with CNS therapeutants. The most useful application for methylsulfonylmethane seen to date in the field of mental normalizing is as an aid to the terminally ill, to relieve anxiety and depression.\nTo a chronically or terminally ill patient suffering from mental depression, administer […] body weight of methylsulfonylmethane daily, in tablet or capsule form, dissolved in water or a cold beverage, or admixed in a cold food. Within 12 hours to 2 days, a significant improvement in the mental attitude of the patient will be noted."}, "[3]": {"test_system": "emphysema and lung tumor respiratory deficiency", "assay": "Treatment of lung dysfunction (Example 29)", "assay_type": "in vivo, human", "description": "Seven human subjects with respiratory deficiency were given methylsulfonylmethane by the oral route in amounts ranging from 250-1,500 mg/day, in single or divided units. Five presented emphysema believed associated with cigarette smoking. Two presented tumor involvement of the lung with additional function impairment due to pleural fluid accumulation.\nTwo of five subjects with emphysema had prior cardiorespiratory function tests and follow-up evaluations at six and eight weeks after starting a course of 500 mg/day orally of methylsulfonylmethane.\nPrior to and during the test period, at approximately two-week intervals, all presenting emphysema were required to walk a measured distance compatible with their physical resources. […] The lung cavity fluid problem of each subject disappeared during the first months of the test period."}, "Giardia lamblia [4]": {"test_system": "Giardia lamblia", "assay": "In vitro inhibition of Giardia lamblia (Example 28(b))", "assay_type": "cell-based", "description": "However, at 20 mg/ml concentration, it was strongly inhibitory and concentrations above 40 mg/ml promptly killed the organism."}, "[5]": {"test_system": "physical fatigue syndrome", "assay": "Post-athletic activity fatigue (Example 25)", "assay_type": "in vivo, human", "settings": "1-2 gm/day, preceding six months; usually 8-10 days", "source_text": "The physical fatigue syndrome following intense athletic activity in competitive sports which usually persists for 8-10 days in athletes was gone in 2-3 days in individuals who had ingested methylsulfonylmethane (from 1-2 gm/day in split dosages) for the preceding six months."}, "sun and wind burn": {"test_system": "sun and wind burn", "assay": "Sun and wind burn (Example 23)", "assay_type": "in vivo, human", "settings": "0.5-2 gm/day, about 4 hours exposure; companions severely burned"}, "arthritic patients": {"test_system": "arthritic patients", "assay": "Chemical profile of arthritic patients", "assay_type": "in vivo, human", "settings": "drop from 600+", "source_text": "8. Improving the chemical profile of arthritic patients, e.g., providing relief from pain and stiffness, reduced swelling and inflammation, coupled with a return of blood chemistry towards normalcy, for example, a RH titer drop from 600+to 300 or lower."}, "weight gain": {"test_system": "weight gain", "assay": "Diet supplement in animals (Example 18)", "assay_type": "in vivo, laboratory animals, including dogs", "source_text": "A possible explanation for this is that any minor allergic response to the diet was neutralized by the methylsulfonylmethane."}, "mammary carcinoma": {"test_system": "mammary carcinoma", "assay": "Resistance to DMBA-induced mammary carcinoma (Example 36)", "assay_type": "in vivo, female rats", "settings": "2% by wt. in diet; Group 3; Group 2 (DMBA only) had cancers", "description": "Forty-five female rats were stabilized to the laboratory and then divided into 3 groups of 15 each. Group 1 was designated control, Groups 2 and 3 were treated by topical application to the hair-free abdomen with a solution of the carcinogen dimethyl-benzanthracene (DMBA). All three groups were each fed a standard laboratory diet with water, ad lib. Group 3 also received in […] their standard diet 2% by wt. of methylsulfonylmethane."}, "mucous membranes": {"test_system": "mucous membranes", "assay": "Binding of labeled 35-S dimethyl sulfone to mucous membranes by autoradiography", "settings": "35-S labeled", "source_text": "1. Reducing the adverse response to inhalant allergens. This action may be due entirely or in part to a physical blocking action. Labeled 35-S dimethyl sulfone binds tightly to the surface of mucous membranes and by autoradiography, the membranes appears to be coated, as with a paint."}, "Giardia lamblia [6]": {"test_system": "Giardia lamblia", "assay": "Treatment of Giardia infection in a subject (Example 28(b))", "assay_type": "in vivo, human", "settings": "500 mg orally three times/24 hours × 14 days", "description": "One subject with confirmed Giardia, apparently contacted from contaminated water in a primitive area, was given 500 mg of methylsulfonylmethane orally three times/24 hours×14 days. By the eighth day they were asymptomatic."}, "coat": {"test_system": "coat", "assay": "Coat quality of dogs (Example 7)", "assay_type": "in vivo, dog (female labradors)", "settings": "5% in drinking water, 45 days; three individuals", "source_text": "The coats of animals A and B of Example 6 were examined by three individuals."}, "[7]": {"test_system": "pruritis, acne, acne rosacea", "assay": "Connective tissue and dermatological disorders (Example 13)", "assay_type": "in vivo, human", "source_text": "Teenagers found methylsulfonylmethane in cola drinks a particularly acceptable satisfactory combination when treating acne. With rosacea, visual improvement was much slower."}, "[8]": {"settings": "about 60 and about 500 mg/day/kg body wt."}}}
{"smiles": "CS(C)(=O)=O", "note": "[methylsulfonylmethane]", "values": [{"measurement": "primary IgM and secondary IgG responses to sheep erythrocytes (SRBC)", "setting": "[1]", "result": "significantly enhancement"}, {"measurement": "tnp-ficoll response", "setting": "[1]", "result": "significant suppression"}, {"measurement": "sense of taste", "setting": "[2]; critical observers", "result": "improved"}, {"measurement": "sense of smell", "setting": "[2]; gargle, two subjects with restricted sense of smell", "result": "sharpening of this sense"}, {"measurement": "bad breath associated with smoking or food", "setting": "[2]; in water, saline solution or oral hygiene product", "result": "reduced or eliminated"}, {"measurement": "viscosity of the mucous", "setting": "[2]; subjects with viscid mucoid nasopharyngeal discharge", "result": "reduction in the viscosity of the mucous"}, {"measurement": "likelihood of severe leg cramp during or after race", "setting": "leg cramps", "result": "significantly reduced"}, {"measurement": "development of tumors", "setting": "mammary tumors", "result": "did not develop tumors"}, {"measurement": "time to significant improvement in mental attitude", "setting": "mood and depression; 1000 mg/kg body weight daily, chronically or terminally ill patient", "result": "Within 12 hours to 2 days"}, {"measurement": "alertness", "setting": "mood and depression; reported by individuals", "result": "increased alertness"}, {"measurement": "depression frequency", "setting": "mood and depression; reported by individuals", "result": "very infrequent depression"}, {"measurement": "mood changes", "setting": "mood and depression; reported by individuals", "result": "a plateau of mood changes"}, {"measurement": "ability to concentrate", "setting": "mood and depression; students", "result": "enhanced"}, {"measurement": "time to relief of depression", "setting": "mood and depression; subjects intermittently on antidepression medication, days with prior medication", "result": "within hours rather than days"}, {"measurement": "cardiorespiratory function values, in particular arterial oxygen tension", "setting": "[3]; 500 mg/day orally, two emphysema subjects, six and eight weeks", "result": "both had values in the normal range"}, {"measurement": "comfortable walking distance", "setting": "[3]; emphysema sufferers, alone or with 1000 mg ascorbic acid/day, within 2-4 weeks", "result": "at least doubled"}, {"measurement": "alertness, comfort and outlook", "setting": "[3]; two subjects with lung tumors", "result": "more alert, comfortable, and with a better outlook and attitude"}, {"measurement": "lung cavity fluid problem", "setting": "[3]; two subjects with lung tumors, first months", "result": "disappeared"}, {"measurement": "concentration promptly killing the organism", "setting": "Giardia lamblia [4]", "result": "above 40 mg/ml"}, {"measurement": "concentration with no significant inhibition", "setting": "Giardia lamblia [4]", "result": "≤ 1", "unit": "mg/mL"}, {"measurement": "strongly inhibitory concentration", "setting": "Giardia lamblia [4]", "result": 20, "unit": "mg/mL"}, {"measurement": "duration of physical fatigue syndrome", "setting": "[5]", "result": "2 to 3", "unit": "days"}, {"measurement": "suffering from sun and wind exposure", "setting": "sun and wind burn", "result": "suffered only mildly"}, {"measurement": "RH titer", "setting": "arthritic patients", "result": "≤ 300"}, {"measurement": "fur quality", "setting": "weight gain; [8]", "result": "improved"}, {"measurement": "nail growth", "setting": "weight gain; [8]", "result": "somewhat faster"}, {"measurement": "weight gain of immature animals vs controls", "setting": "weight gain; [8]", "result": "gained weight at a greater rate"}, {"measurement": "weight increases with adult animals", "setting": "weight gain; comparable feeding experiments", "result": "not seen"}, {"measurement": "mammary carcinoma at 5 months post DMBA", "setting": "mammary carcinoma", "result": "free of mammary carcinoma"}, {"measurement": "binding to the surface of mucous membranes", "setting": "mucous membranes", "result": "binds tightly"}, {"measurement": "organism in two stool specimens", "setting": "Giardia lamblia [6]; collected one week apart", "result": "free of the organism"}, {"measurement": "symptoms by the eighth day", "setting": "Giardia lamblia [6]; one subject", "result": "asymptomatic"}, {"measurement": "coat quality (thickness and shiny appearance)", "setting": "coat", "result": "superior"}, {"measurement": "response of pruritis and acne", "setting": "[7]; about 100-1000 mg per day", "result": "respond promptly"}, {"measurement": "response of dermatological problems", "setting": "[7]; diet supplemented", "result": "respond favorably"}, {"measurement": "visual improvement with rosacea", "setting": "[7]; in vivo", "result": "much slower"}, {"measurement": "time before telangiectasis diminished", "setting": "[7]; subject three, 500 mg daily", "result": "at least several weeks"}]}
